Experimental data as given in patent publication US8372857B2, “Substituted 4-hydroxypyrimidine-5-carboxamides” (Merck Sharp & Dohme Corp., priority 2009, dated 2013).

Assays:
[1] = Pharmacokinetics after intravenous dosing in dogs (plasma concentration by LC-MS/MS); assay type: in vivo; details: beagle, dog, dogs (beagles), 0.5 mg/kg intravenous
Procedure: The pharmacokinetics and cytochrome P450 activity of Example 1 (E-1) were evaluated, and compared to that of Example 187 disclosed in International PCT application PCT/US09/036,501, filed Mar. 9, 2009. Compounds were formulated in a 1:1 solution (by volume) of PEG200: water and dosed at 0.5 mg/kg of body weight. The formulation was dosed intravenously in 2 dogs (beagles), and blood was drawn at the following time points (hours) 0.08, 0.25, 0.5, 1, 2, 4, 6, 8, 24. The plasma concentrations shown in the table below were determined by protein precipitation followed by liquid chromatography—tandem mass spectrometry analysis.

CYP3A4 = CYP3A4 (Homo sapiens, UniProt P08684); test: Cytochrome P450 inhibition, CYP3A4; assay type: in vitro ADME
Chain of CYP3A4 (P08684 whole entry): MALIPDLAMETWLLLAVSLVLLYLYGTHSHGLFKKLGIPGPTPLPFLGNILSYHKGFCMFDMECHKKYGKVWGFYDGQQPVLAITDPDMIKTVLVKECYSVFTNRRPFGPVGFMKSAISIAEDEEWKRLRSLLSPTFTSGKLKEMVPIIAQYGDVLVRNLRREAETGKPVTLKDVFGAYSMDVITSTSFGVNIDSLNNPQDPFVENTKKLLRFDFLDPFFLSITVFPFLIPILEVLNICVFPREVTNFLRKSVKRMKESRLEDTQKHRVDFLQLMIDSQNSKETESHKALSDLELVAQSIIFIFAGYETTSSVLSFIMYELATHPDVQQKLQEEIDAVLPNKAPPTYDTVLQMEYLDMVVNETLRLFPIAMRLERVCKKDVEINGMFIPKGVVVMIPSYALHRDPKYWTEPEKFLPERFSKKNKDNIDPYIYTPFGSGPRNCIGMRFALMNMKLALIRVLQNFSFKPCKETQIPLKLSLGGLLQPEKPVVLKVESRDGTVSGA
Procedure: (§1) The compounds of Example 1 and also Example 187 of PCT/US09/036,501 were tested for their activity at the cytochrome P450 enzymes CYP3A4 and CYP2C8. Utilizing procedures similar to that described by Walasky et al. and the references therein, the following human IC50 values were determined (Walsky, R. L.; Obach, R. S. Drug Metab. Dispos. 2004, 32, 647-660.)

CYP2C8 = biological target: T1, CYP2C8 (Homo sapiens, UniProt P10632); test: Cytochrome P450 inhibition, CYP2C8; assay type: in vitro ADME
T1 sequence (P10632 1-490): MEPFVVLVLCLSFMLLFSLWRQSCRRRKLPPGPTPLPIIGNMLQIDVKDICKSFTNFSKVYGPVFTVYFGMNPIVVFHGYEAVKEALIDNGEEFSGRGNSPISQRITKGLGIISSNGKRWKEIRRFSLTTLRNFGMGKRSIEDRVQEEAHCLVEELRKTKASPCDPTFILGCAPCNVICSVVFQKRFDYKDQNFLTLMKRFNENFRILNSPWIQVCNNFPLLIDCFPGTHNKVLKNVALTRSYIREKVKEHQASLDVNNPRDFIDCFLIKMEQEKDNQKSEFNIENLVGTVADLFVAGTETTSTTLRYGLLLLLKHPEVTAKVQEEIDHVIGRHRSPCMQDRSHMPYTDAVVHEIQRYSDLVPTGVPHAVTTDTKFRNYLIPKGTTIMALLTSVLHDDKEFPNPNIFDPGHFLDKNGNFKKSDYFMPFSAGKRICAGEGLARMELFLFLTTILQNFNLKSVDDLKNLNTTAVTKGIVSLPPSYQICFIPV
Procedure: as §1

PHD2 = biological target: T2, PHD2 (Homo sapiens, UniProt Q9GZT9); test: PHD2 / HIF-1α peptide time resolved fluorescence assay; assay type: biochemical
T2 construct: FLAG-tagged full length PHD2 expressed in and purified from baculovirus-infected Sf9 cells; FLAG; made in house; host or cells: baculovirus-infected Sf9 cells
T2 sequence (Q9GZT9 whole entry): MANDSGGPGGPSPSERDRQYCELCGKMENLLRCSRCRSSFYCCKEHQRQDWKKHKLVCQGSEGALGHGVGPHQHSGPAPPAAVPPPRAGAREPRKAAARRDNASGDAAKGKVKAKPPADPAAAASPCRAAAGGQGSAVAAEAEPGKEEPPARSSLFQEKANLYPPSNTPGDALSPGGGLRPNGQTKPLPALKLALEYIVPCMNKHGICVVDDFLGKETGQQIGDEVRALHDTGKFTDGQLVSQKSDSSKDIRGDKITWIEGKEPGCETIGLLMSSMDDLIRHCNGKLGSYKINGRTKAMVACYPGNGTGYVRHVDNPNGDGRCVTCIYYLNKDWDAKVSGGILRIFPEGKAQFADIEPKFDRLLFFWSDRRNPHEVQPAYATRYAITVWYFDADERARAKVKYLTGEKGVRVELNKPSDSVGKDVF
Procedure: To each well of a 96-well plate was added 1 μL of test compound in DMSO and 20 μl of assay buffer (50 mM Tris pH 7.4/0.01% Tween-20/0.1 mg/ml bovine serum albumin/10 μM ferrous sulfate/1 mM sodium ascorbate/20 μg/ml catalase) containing 0.15 μg/ml FLAG-tagged full length PHD2 expressed in and purified from baculovirus-infected Sf9 cells. After a 30 min preincubation at room temperature, the enzymatic reactions were initiated by the addition of 4 μL of substrates (final concentrations of 0.2 μM 2-oxoglutarate and 0.5 μM HIF-1α peptide biotinyl-DLDLEMLAPYIPMDDDFQL). After 2 hr at room temperature, the reactions were terminated and signals were developed by the addition of a 25 μL quench/detection mix to a final concentration of 1 mM ortho-phenanthroline, 0.1 mM EDTA, 0.5 nM anti-(His)6 LANCE reagent (Perkin-Elmer Life Sciences), 100 nM AF647-labeled streptavidin (Invitrogen), and 2 μg/ml (His)-6-VIAL complex (S. Tan(2001) Protein Expr. Purif. 21, 224-234). The ratio of time resolved fluorescence signals at 665 and 620 nm was determined, and percent inhibition was calculated relative to an uninhibited control sample run in parallel.

- MRT [1]: 6.57 h
- clearance [1]: 2.49 mL/min/kg
- concentration at 0.08 h ([1]; 0.08 hours): 1500 nM
- concentration at 0.25 h ([1]; 0.25 hours): 1150 nM
- concentration at 0.5 h ([1]; 0.50 hours): 1110 nM
- concentration at 1 h ([1]; 1.00 hours): 944 nM
- concentration at 2 h ([1]; 2.00 hours): 754 nM
- concentration at 4 h ([1]; 4.00 hours): 581 nM
- concentration at 6 h ([1]; 6.00 hours): 374 nM
- concentration at 8 h ([1]; 8.00 hours): 475 nM
- concentration at 24 h ([1]; 24.00 hours): 23 nM
- half-life ([1]; read-out: T ½ (converted)): 4.09 h
- IC50 (CYP3A4): > 50 µM
- IC50 (CYP2C8): 49.5 µM
- IC50, inhibition of the interaction between PHD2 and a HIF peptide (PHD2; general range statement, units within the value): 0.0001 to 10 µM
- IC50 (PHD2; read-out: PHD2 binding activity expressed as IC50): ≤ 0.01 µM
Structure (SMILES): COc1ccc(-c2ccc(C(C)(C)NC(=O)c3cnc(-c4cccnn4)nc3O)cn2)cc1 [Example 1, 4-Hydroxy-N-{1-[6-(4-methoxyphenyl)pyridin-3-yl]-1-methylethyl}-2-pyridazin-3-ylpyrimidine-5-carboxamide]
